Experiment [1] concerns differentiated PC12 cells. Put plainly: Time-lapse fluorescence recording of mitochondrial motility and morphology in neurites of differentiated PC12 cells (dsRed2-Mito). The following applies: for mitochondrial motility increased: nimodipine 5 μM and AP5 50 μM together (both antagonists), with different forms of apoE; for reduction of percentage of motile mitochondria in response to neuronal activation: apoE 7.5 μg/ml 24 h, then repetitive depolarizations with KCl.

The test system of another experiment is Neuro-2a cells. Kind of experiment: MTT cell survival assay of Neuro-2a cells transiently transfected with apoE4 cDNA constructs. The experiment is classed as cell-based, mouse. The following applies: expressed by transient transfection; 48 h after transfection; vs WT apoE4 / apoE4(1-272). The protocol: Cell Culture and Transfection. […] ApoE4 expression levels were determined by anti-apoE western blotting of cell lysates and media. […] Thus, the results are not due to overexpression.
Cell Survival. […] Cell survival was estimated with an MTT colorimetric assay (52) 48 h after transfection.
In general terms: Tetrazolium assays rely on reduction of a dye to a coloured formazan, in cell work by metabolically active cells.

Experiment [2] has as its system PC12 cells stably expressing various forms of apoE. Put plainly: Mitochondrial dynamics in differentiated PC12 cells stably expressing various forms of apoE. Particulars: endogenous (stably expressed) apoE, ~200 pg apoE per μg cellular protein; vs control. The experiment is classed as cell-based, rat.
The subject of experiment [3] is rat primary hippocampal neurons. The experiment is classed as cell-based. The following applies: apoE 7.5 μg/ml, 24 h. From the text: FIGS. 12A and 12B. […] Scale bar=5 μm.
The subject of experiment [4] is rat primary cortical neurons.
The test system of a further experiment is primary cortical neurons. Kind of experiment: Number, occupancy and size of mitochondria in dendrites of primary cortical neurons. Particulars: vs apoE3-treated cells or controls. The experiment is classed as cell-based, rat.
Where [5] appears, read: repetitive depolarization with KCl 90 mM.

“Also recorded” adds a separate entry of the source.

Take `[Cl-].[K+]` [KCl]: in experiment [1] (setting [5]), the “average moving velocity (anterograde direction)” value is “drastically reduced”, the “mitochondrial moving velocity (distance/time moving)” value is “unaltered; also recorded: did not affect”, the “net moving distance (anterograde direction)” value was “drastically reduced” and the retrograde motility result is on record as “No significant changes”. This compound gave a mitochondrial index reduced in experiment [1] (repetitive depolarizations with KCl (4×, 90 mM)) of 22.5%.
For “L279Q: full-length WT apoE4 with single mutation L279Q”, the “neurotoxicity (cell survival, MTT assay)” value in the experiment on Neuro-2a cells is reported as “as neurotoxic as apoE4(1-272)”.
With `COCCOC(=O)C1=C(C)NC(C)=C(C(=O)OC(C)C)C1c1cccc([N+](=O)[O-])c1` (stereo not drawn) [nimodipine], the mitochondrial motility increased result in experiment [1] (24 h) is on record as “about 30%”.
Consider “Q284A: full-length WT apoE4 with single mutation Q284A”, for which the “neurotoxicity (cell survival, MTT assay)” value with Neuro-2a cells is “as neurotoxic as apoE4(1-272)”.
As to “apoE3: recombinant apolipoprotein E3 isoform; also stably expressed in PC12 cells”, the “percentage of motile mitochondria reduced” value in experiment [2] is given as “unaffected”. Besides, the “density of dendritic spines increased vs controls” value is reported as 11±4% in experiment [3] and 20±6% in experiment [4] (apoE 7.5 μg/ml, 24 h). For the same compound, the “reduction of percentage of motile mitochondria in response to neuronal activation” value in experiment [1] is 58±6%. For the same compound, the “average length of mitochondria” value in experiment [1] (exogenous apoE 7.5 μg/ml, 24 h) is “did not”. Moreover, the “mitochondrial motility / dynamics overall” value in experiment [1] (exogenous apoE 7.5 μg/ml, 24 h) is recorded as “not affected”; in experiment [1] (exogenous apoE 7.5 μg/ml, 24 h, listed as ApoE3), “did not alter mitochondrial dynamics significantly”.
Regarding “apoE4: full-length human apolipoprotein E4 (SEQ ID NO:1); expressed from cDNA or added as recombinant protein”, in experiment [3], the “density of dendritic spines decreased vs controls” value is 19±5% and the “density of dendritic spines reduced compared with apoE3” value was determined as 28±4%. The “number of mitochondria in dendritic spines” value with primary cortical neurons is on record as “many fewer mitochondria”. For the same compound, the “spinal density reduced in response to neuronal activation, compared to controls” value in experiment [4] (apoE 7.5 μg/ml 24 h, repetitive KCl depolarization) came to 48±11%. In addition, in experiment [4] (apoE 7.5 μg/ml, 24 h), the “density of dendritic spines decreased vs controls” value turned out to be 13±5% and the “density of dendritic spines reduced compared with apoE3” value was found to be 27±5%. In experiment [1], the “reduction of percentage of motile mitochondria in response to neuronal activation” value was found to be 30%. In addition, in experiment [1] (exogenous apoE 7.5 μg/ml, 24 h), the “average length of mitochondria” value is recorded as “significantly reduced” and the retrograde velocity entry is on record as “unaffected”.
In the case of `NC(CCCP(=O)(O)O)C(=O)O` (stereo not drawn) [AP5, 2-amino-5-phosphonovalerate], the mitochondrial motility increased entry in experiment [1] (24 h) is given as “about 30%”.
As to `NC1=N[C@H](O)[C@H]2[C@H]3O[C@]4(O)O[C@@H]([C@@H](O)[C@@]2(N1)[C@@H]4O)[C@]3(O)CO` [TTX, tetrodotoxin], the “differences in dendritic spine density between forms of apoE in the presence of TTX” value in experiment [4] was “No significant differences”. Besides, in experiment [1], the “differences in mitochondrial dynamics between forms of apoE in the presence of TTX” value is “No significant differences”, the mitochondrial dynamics entry is “increased” and the mitochondrial index result is reported as “without affecting; also recorded: not affected”.
In the case of “aa241-272 of apoE4: lipid binding region alone of apoE4 (AKLEEQAQQIRLQAEAFQARLKSWFEPLVEDM; UniProt P02649 259-290, looked up, fragment)”, the “neurotoxicity (cell survival, MTT assay)” value with Neuro-2a cells was “No neurotoxicity was observed”.

Source of the values: patent US20090082271A1, “AGENTS THAT REDUCE APOE-INDUCED IMPAIRMENT OF MITOCHONDRIA AND METHODS OF USE THEREOF” (priority 2005, published 2009).
